Results published in patent US7943619B2, “Isoxazolo-pyridazine derivatives” (priority 2007, dated 2011).

What follows are compounds tested against human GABA A receptor α5β3γ2 (α5 subunit) (Homo sapiens, UniProt P18507+P31644) (assay: biochemical). Details: not given.
Format: binding
Description: The affinity of compounds at GABA A receptor subtypes was measured by competition for [3H]flumazenil (85 Ci/mmol; Roche) binding to HEK293 cells expressing rat (stably transfected) or human (transiently transfected) receptors of composition α1β3γ2, α2β3γ2, α3β3γ2 and α5β3γ2.
Cell pellets were suspended in Krebs-tris buffer (4.8 mM KCl, 1.2 mM CaCl2, 1.2 mM MgCl2, 120 mM NaCl, 15 mM Tris; pH 7.5; binding assay buffer), homogenized by polytron for ca. 20 sec on ice and centrifuged for 60 min at 4° C. (50000 g; Sorvall, rotor: SM24=20000 rpm). The cell pellets were resuspended in Krebs-tris buffer and homogenized by polytron for ca. 15 sec on ice. Protein was measured (Bradford method, Bio-Rad) and aliquots of 1 mL were prepared and stored at −80° C.
Assays were incubated to equilibrium for 1 hour at 4° C. and harvested onto GF/C uni-filters (Packard) by filtration using a Packard harvester and washing with ice-cold wash buffer (50 mM Tris; pH 7.5). After drying, filter-retained radioactivity was detected by liquid scintillation counting. Ki values were calculated using Excel-Fit (Microsoft) and are the means of two determinations.

Sequence of human GABA A receptor α5β3γ2 (α5 subunit) (P31644 32-462): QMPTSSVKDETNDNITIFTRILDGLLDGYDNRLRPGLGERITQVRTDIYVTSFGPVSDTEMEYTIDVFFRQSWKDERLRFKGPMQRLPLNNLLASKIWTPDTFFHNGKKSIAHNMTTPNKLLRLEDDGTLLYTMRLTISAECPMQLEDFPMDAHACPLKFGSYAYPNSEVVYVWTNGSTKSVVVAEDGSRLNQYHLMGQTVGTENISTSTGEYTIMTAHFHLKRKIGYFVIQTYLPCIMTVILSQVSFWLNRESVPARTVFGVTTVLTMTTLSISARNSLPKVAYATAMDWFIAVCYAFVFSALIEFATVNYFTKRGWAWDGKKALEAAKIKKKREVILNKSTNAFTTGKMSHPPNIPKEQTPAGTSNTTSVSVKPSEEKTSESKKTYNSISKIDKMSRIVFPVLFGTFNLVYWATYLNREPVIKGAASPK
Sequence of human GABA A receptor α5β3γ2 (α5 subunit) (P28472 26-473 partner): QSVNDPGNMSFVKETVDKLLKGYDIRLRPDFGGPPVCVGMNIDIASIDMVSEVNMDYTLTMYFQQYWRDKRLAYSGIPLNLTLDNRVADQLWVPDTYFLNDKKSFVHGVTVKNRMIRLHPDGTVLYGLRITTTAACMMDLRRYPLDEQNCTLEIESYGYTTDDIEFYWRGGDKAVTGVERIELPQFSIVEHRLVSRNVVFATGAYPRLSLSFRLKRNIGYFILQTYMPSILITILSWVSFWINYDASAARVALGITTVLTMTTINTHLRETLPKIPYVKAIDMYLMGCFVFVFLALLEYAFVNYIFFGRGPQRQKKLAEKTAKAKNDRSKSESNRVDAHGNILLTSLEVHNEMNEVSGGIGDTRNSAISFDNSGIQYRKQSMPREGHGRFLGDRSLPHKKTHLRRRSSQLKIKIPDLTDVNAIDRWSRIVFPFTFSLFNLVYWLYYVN
Sequence of human GABA A receptor α5β3γ2 (α5 subunit) (P18507 40-475): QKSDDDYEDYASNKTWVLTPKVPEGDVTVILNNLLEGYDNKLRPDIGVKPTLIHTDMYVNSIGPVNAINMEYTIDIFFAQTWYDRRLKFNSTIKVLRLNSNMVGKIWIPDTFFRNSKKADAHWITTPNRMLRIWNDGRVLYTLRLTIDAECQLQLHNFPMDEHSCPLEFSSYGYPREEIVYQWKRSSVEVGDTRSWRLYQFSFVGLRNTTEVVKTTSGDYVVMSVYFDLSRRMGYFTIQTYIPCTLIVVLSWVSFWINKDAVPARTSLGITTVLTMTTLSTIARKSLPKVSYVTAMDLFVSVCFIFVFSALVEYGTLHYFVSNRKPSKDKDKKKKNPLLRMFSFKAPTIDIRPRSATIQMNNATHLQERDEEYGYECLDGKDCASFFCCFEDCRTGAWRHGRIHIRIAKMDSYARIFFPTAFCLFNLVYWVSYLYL

Which Ki does the source give for `Cc1onc(-c2ccccn2)c1COc1ccc(C(=O)N2CCOCC2)nn1` [Example 96, [6-(5-Methyl-3-pyridin-2-yl-isoxazol-4-ylmethoxy)-pyridazin-3-yl]-morpholin-4-yl-methanone] here?
Its Ki is 25.9 nM.

Same assay, conditions: competition for [3H]flumazenil binding, HEK293 cells transiently expressing human receptors; means of two determinations; read-out: hKi

`Cc1onc(-c2ccc(F)cc2)c1COc1ccc(Cl)nn1` [Example 57, 3-Chloro-6-[3-(4-fluoro-phenyl)-5-methyl-isoxazol-4-ylmethoxy]-pyridazine] was tested. Which Ki did it give?
The Ki was 4.6 nM.

With `CCOC(=O)c1ccc(OCc2c(-c3ccc(F)cc3)noc2C)nn1` [Example 58, 6-[3-(4-Fluoro-phenyl)-5-methyl-isoxazol-4-ylmethoxy]-pyridazine-3-carboxylic acid ethyl ester] as the compound, how does the Ki read?
Its Ki is 3.3 nM.

Which Ki does the source give for `Cc1onc(-c2ccc(F)cc2)c1COc1ccc(C(=O)NCC2CC2)nn1` [Example 59, 6-[3-(4-Fluoro-phenyl)-5-methyl-isoxazol-4-ylmethoxy]-pyridazine-3-carboxylic acid cyclopropylmethyl-amide] here?
Its Ki is 4.6 nM.

For `Cc1onc(-c2ccc(F)cc2)c1COc1ccc(C(=O)NCC(F)(F)F)nn1` [Example 60, 6-[3-(4-Fluoro-phenyl)-5-methyl-isoxazol-4-ylmethoxy]-pyridazine-3-carboxylic acid (2,2,2-trifluoro-ethyl)-amide], which Ki is on record?
Its Ki is 3.5 nM.

How did the Ki turn out when `Cc1onc(-c2ccc(F)cc2)c1COc1ccc(C(=O)NC2CC2)nn1` [Example 62, 6-[3-(4-Fluoro-phenyl)-5-methyl-isoxazol-4-ylmethoxy]-pyridazine-3-carboxylic acid cyclopropylamide] was run?
Its Ki is 1.7 nM.

How did the Ki turn out when `Cc1onc(-c2ccc(F)cc2)c1COc1ccc(C(=O)NC2CCOCC2)nn1` [Example 63, 6-[3-(4-Fluoro-phenyl)-5-methyl-isoxazol-4-ylmethoxy]-pyridazine-3-carboxylic acid (tetrahydro-pyran-4-yl)-amide] was run?
The Ki was 2.4 nM.

With `Cc1onc(-c2ccc(F)cc2)c1COc1ccc(C(=O)N2CCS(=O)(=O)CC2)nn1` [Example 66, (1,1-Dioxo-1λ6-thiomorpholin-4-yl)-{6-[3-(4-fluoro-phenyl)-5-methyl-isoxazol-4-ylmethoxy]-pyridazin-3-yl}-methanone] as the compound, how does the Ki read?
Its Ki is 11.7 nM.

`Cc1onc(-c2ccccc2)c1COc1ccc2nncn2n1` [Example 86, 6-(5-Methyl-3-phenyl-isoxazol-4-ylmethoxy)-[1,2,4]triazolo[4,3-b]pyridazine] was tested. Which Ki did it give?
The Ki was 6.6 nM.

With `Cc1onc(-c2ccc(F)cc2)c1COc1ccc2nncn2n1` [Example 91, 6-[3-(4-Fluoro-phenyl)-5-methyl-isoxazol-4-ylmethoxy]-[1,2,4]triazolo[4,3-b]pyridazine] as the compound, how does the Ki read?
Its Ki is 7.5 nM.

`Cc1onc(-c2ccccn2)c1COc1ccc(Cl)nn1` [Example 92, 3-Chloro-6-(5-methyl-3-pyridin-2-yl-isoxazol-4-ylmethoxy)-pyridazine] was tested. Which Ki did it give?
Its Ki is 3.8 nM.

For `CCOC(=O)c1ccc(OCc2c(-c3ccccn3)noc2C)nn1` [Example 93, 6-(5-Methyl-3-pyridin-2-yl-isoxazol-4-ylmethoxy)-pyridazine-3-carboxylic acid ethyl ester], which Ki is on record?
The Ki was 2.9 nM.

For `Cc1onc(-c2ccccn2)c1COc1ccc(C(=O)NC2CCOCC2)nn1` [Example 94, 6-(5-Methyl-3-pyridin-2-yl-isoxazol-4-ylmethoxy)-pyridazine-3-carboxylic acid (tetrahydro-pyran-4-yl)-amide], which Ki is on record?
Its Ki is 2.9 nM.

With `Cc1onc(-c2ccccn2)c1COc1ccc(C(=O)NC(C)C)nn1` [Example 95, 6-(5-Methyl-3-pyridin-2-yl-isoxazol-4-ylmethoxy)-pyridazine-3-carboxylic acid isopropylamide] as the compound, how does the Ki read?
The Ki was 2.7 nM.

With `Cc1onc(-c2ccccn2)c1COc1ccc(C(=O)NC2CC2)nn1` [Example 97, 6-(5-Methyl-3-pyridin-2-yl-isoxazol-4-ylmethoxy)-pyridazine-3-carboxylic acid cyclopropylamide] as the compound, how does the Ki read?
The Ki was 1.6 nM.

How did the Ki turn out when `Cc1onc(-c2ccccn2)c1COc1ccc(C(=O)NCC(F)(F)F)nn1` [Example 98, 6-(5-Methyl-3-pyridin-2-yl-isoxazol-4-ylmethoxy)-pyridazine-3-carboxylic acid (2,2,2-trifluoro-ethyl)-amide] was run?
The Ki was 2.8 nM.
